Experimental findings from patent publication US20210094922A1, “Dyes for Analysis of Soluble Protein Aggregates or Misfolded Protein Oligomers” (The Penn State Research Foundation, priority 2018, published 2021) are described below.

The target in assay [1] is T1, Htt-97Q-Halo (UniProt P0A3G2+P42858, A155T/A167V/A172T/A224E/C128F/C176G/D78G/E160K/E257K/H272N/K175M/K195N/L47V/L88M/N227D/S58T/T264A/Y273L/Y87F).
T1 construct: using the Huntingtin exon 1 protein (Htt) with expansion of a polyglutamine tract within its N-terminal domain; expressed in transfected cells; host or cells: HEK293T
T1 sequence (P42858+P0A3G2 fused with the stated changes): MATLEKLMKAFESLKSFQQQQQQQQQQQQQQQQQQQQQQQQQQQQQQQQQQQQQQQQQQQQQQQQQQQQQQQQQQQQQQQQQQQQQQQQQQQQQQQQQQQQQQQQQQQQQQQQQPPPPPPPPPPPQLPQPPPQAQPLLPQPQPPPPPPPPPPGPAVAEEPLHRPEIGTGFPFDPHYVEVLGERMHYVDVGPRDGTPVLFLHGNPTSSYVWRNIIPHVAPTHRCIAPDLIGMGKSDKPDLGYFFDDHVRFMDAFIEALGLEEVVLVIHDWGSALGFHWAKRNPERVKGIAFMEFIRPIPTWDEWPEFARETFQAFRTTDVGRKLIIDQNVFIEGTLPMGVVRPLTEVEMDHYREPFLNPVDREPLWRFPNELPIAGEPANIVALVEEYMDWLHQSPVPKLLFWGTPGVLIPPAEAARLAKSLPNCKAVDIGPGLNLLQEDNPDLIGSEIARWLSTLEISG
The experiment in a line: AggTag imaging of Htt-Halo aggregation in HEK293T cells. The format is cell-based, human. As for the experimental part: (§1) (a) The dual-probe live cell imaging experiment. Halo-tag fusion proteins were labeled in the presence of both the non-fluorogenic coumarin ligand (1 μM) and 4 (1 µM). The newly synthesized Htt-Halo proteins were equally labeled with either the coumarin ligand or 4. The coumarin ligand is fluorescent both before and after aggregation of Htt-Halo. By contrast, signal of 4 exclusively arises from Htt-Halo aggregates. (b) Dual probes labeling confirms expression of proteins. The Htt Q0-Halo and Htt Q97-Halo proteins were transiently transfected and expressed in HEK293T cells for 24 h, in the presence of 1 μM coumarin Halo-Tag ligand and 1 μM of 4. In cells expressing Htt Q97-Halo proteins, punctate structures in the coumarin channel coincided with the turn-on fluorescence of 4. […] (c) The Htt Q97 protein, without a Halo-Tag, was transiently transfected and expressed in HEK293T cells for 24 h, in the presence of 1 μM of 4. No turn-on fluorescence of 4 was found. Red: fluorescence from the SOD1(V31A)-Halo-4 conjugate. Blue: coumarin Halo-Tag ligand in (a) or nucleus stained by Hoechst 33342 in (b). Scale bar: 10 μm. (d) Fluorescent intensity of cell lysates from samples as represented in FIG. 4d. Error bars: standard error (n=3).
(§2) Confocal microscope imaging. The HEK293T cells were seeded at 25% confluency 24 h prior to transfection in poly-D-lysine coated 35 mm glass bottom dishes (MatTek Corporation). Cells were grown in DMEM media supplemented with 10% FBS and Penicillin-Streptomycin antibiotics until they reached 50-60% confluency. Transfection was carried out using X-tremeGene™ 9 DNA transfection reagent (Roche) according to the manufacturer's instructions. Proteins were expressed for 24 h prior to analyses. To label proteins with Halo-Tag fusion, protein expression was carried out in the presence of 1 μM 4 or 1 μM TMR Halo-Tag ligand to form covalent conjugate with the Halo-Tag domain. For a dual-probe labeling scheme, 1 μM 4 and 1 μM coumarin Halo-Tag ligand to simultaneously form covalent conjugate with the Halo-Tag domain.
(§3) To wash off unbound Halo ligands, the cells were washed extensively by replacing media with fresh DMEM and incubating for 30 min at 37° C. For confocal fluorescence imaging with either 4-labeled Halo fusion, TMR-labeled Halo fusion, EGFP fusion, or mCherry fusion proteins, DMEM media was replaced with FluoroBrite™ DMEM media (ThermoFisher) supplemented with 10% FBS, and Hoechst 33342 (0.1 μg/mL). For confocal fluorescence imaging with either dual-probe labeled Halo fusion with 4 and coumarin ligand, DMEM media was replaced with FluoroBrite™ DMEM media (ThermoFisher) supplemented with 10% FBS. The samples were incubated for 30 min prior to imaging. Media was replaced with fresh FluoroBrite™ DMEM media (ThermoFisher) supplemented with 10% FBS prior to imaging. Confocal images were obtained using Olympus FluoView™ FV1000 confocal microscope. The EGFP fluorescence was visualized using blue argon (488 nm) laser. Nuclear staining and coumarin fluorescence was visualized using violet laser (405 nm). Fluorescence of TMR and 4 were visualized using green HeNe laser (543 nm).

The target of assay [2] is T2, (UniProt P0A3G2+P42858, A155T/A167V/A172T/A224E/C128F/C176G/D78G/DEL18-38/E160K/E257K/H272N/K175M/K195N/L47V/L88M/N227D/S58T/T264A/Y273L/Y87F).
T2 construct: using the Huntingtin exon 1 protein (Htt) with expansion of a polyglutamine tract within its N-terminal domain; expressed in transfected cells; host or cells: HEK293T
T2 sequence (P42858+P0A3G2 fused with the stated changes): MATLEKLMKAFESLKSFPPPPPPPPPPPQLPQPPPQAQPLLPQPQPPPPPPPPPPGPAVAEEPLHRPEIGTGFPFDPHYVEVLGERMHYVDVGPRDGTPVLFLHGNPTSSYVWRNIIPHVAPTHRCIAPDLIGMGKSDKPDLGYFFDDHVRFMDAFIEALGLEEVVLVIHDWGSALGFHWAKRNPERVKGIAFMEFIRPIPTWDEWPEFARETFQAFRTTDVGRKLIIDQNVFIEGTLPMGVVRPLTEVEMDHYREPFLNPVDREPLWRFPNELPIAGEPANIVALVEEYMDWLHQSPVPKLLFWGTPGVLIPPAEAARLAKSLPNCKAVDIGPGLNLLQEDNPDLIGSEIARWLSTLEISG
The description is as above. Type of assay: cell-based, human. The conditions noted are these: non-aggregating control. As for the experimental part: as §1, §2, §3

For assay [3], the system named is Htt-97Q-Halo. The assay is described as above. The following applies: control. Type of assay: cell-based, human. As for the experimental part: as §1, §2, §3
In assay [4] the target is T3, Htt-97Q-Halo (Homo sapiens, UniProt P42858).
T3 construct: using the Huntingtin exon 1 protein (Htt) with expansion of a polyglutamine tract within its N-terminal domain; expressed in transfected cells; host or cells: HEK293T
T3 sequence (P42858 with tags, fused parts or gaps): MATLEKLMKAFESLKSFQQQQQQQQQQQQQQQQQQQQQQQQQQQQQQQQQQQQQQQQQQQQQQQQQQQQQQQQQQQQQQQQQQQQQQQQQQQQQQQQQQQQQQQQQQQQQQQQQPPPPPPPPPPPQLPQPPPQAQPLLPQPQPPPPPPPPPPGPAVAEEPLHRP
The description is as above. Type of assay: cell-based. The conditions noted are these: non-specific binding control. As for the experimental part:
as §1, §2, §3

For assay [5], the target named is SOD1-A4V-Halo (Homo sapiens, UniProt P00441, A5V). In words: Two-color imaging of SOD1-A4V-Halo in HEK293T cells under MG132. The format is cell-based. Also noted: expressed in transfected cells; host or cells: HEK293T. The following applies: 4 and 5 both at 0.5 μM, 5 μM MG132 for 8 h. The text has this:
(B-C) Excitation and emission spectra of 4 (with misfolded oligomers of SOD1-A4V-Halo) and 5 (with insoluble aggregates of SOD1-A4V-Halo).
Combination of 4 and 5 enables a two-color imaging strategy to differentiate insoluble aggregates from soluble oligomers. The inventors carried out live cell imaging experiments, wherein 4 or 5 was used to visualize aggregation of POI-Halo fusion proteins in HEK293T cells. […] To this end, the inventors labeled HEK293T cells expressing SOD1-A4V-Halo simultaneously with 4 and 5 (both at 0.5 μM) for 24 h and treated cells with 5 μM MG132 for 8 h. […] The inventors further carried out experiments using Htt-PolyQ with 110 glutamine repeats (Htt-110Q-Halo).

Sequence of SOD1-A4V-Halo (P00441 with tags, fused parts or gaps A5V limits assumed): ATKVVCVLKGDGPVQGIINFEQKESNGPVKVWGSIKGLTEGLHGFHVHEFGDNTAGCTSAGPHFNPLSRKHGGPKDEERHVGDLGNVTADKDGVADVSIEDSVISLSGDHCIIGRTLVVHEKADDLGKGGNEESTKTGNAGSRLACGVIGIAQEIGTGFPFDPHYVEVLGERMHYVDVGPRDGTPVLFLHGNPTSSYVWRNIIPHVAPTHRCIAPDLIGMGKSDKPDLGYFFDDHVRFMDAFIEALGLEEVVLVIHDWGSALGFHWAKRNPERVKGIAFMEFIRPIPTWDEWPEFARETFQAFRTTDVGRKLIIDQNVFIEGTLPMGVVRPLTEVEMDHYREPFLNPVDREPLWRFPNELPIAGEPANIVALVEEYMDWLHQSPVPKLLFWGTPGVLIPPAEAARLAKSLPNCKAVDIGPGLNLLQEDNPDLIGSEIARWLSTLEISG

For `CN(C)c1ccc(/C=C2N=C(/C=C/c3ccc(N(CCO)CCO)cc3)N(CC(=O)N[C@H]3CC[C@H](C(=O)NCCOCCOCCCCCCCl)CC3)C\2=O)cc1` [Compound 4, (1r,4r)-4-(2-((Z)-2-((E)-4-(bis(2-hydroxyethyl)amino)styryl)-4-(4-(dimethylamino)benzylidene)-5-oxo-4,5-dihydro-1H-imidazol-1-yl)acetamido)-N-(2-(2-((6-chlorohexyl)oxy)ethoxy)ethyl)cyclohexanecarboxamide], the “turn-on fluorescence in cells expressing Htt-97Q-Halo” value in assay [1] is listed as “observed as puncta without any background diffuse fluorescence”. For the same compound, the “origin of Htt-97Q-Halo fluorescence after fractionation of lysate” value in assay [1] (cell lysate) is “primarily originated from the insoluble fraction”. The “fluorescence in cells expressing Htt-0Q-Halo” value in assay [2] was “dark background”. The “fluorescence in cells co-expressing Htt-Q97-GFP and Halo-Tag or just expressing Htt-Q97” value in assay [3] is “showed no fluorescence of 4”. In addition, the “fluorescence in cells expressing Htt-97Q without Halo-Tag” value in assay [4] is “no fluorescent signal”. Moreover, the “fluorescence of perinuclear SOD1 A4V-Halo granules” value in assay [5] is given as “only exhibited red fluorescence from 4”.
